The numbers were not newly measured in patent publication US20190124976A1, “NICOTINE DOSAGE REGIMEN” (priority 2014, published 2019), which cites them from elsewhere.

Each structure is given as a SMILES string.

The conditions of the data set: reported to be as low as.

As to `CN1CCCC1c1cccnc1` (stereo not shown) [nicotine], the minimal lethal dose is given as 30 mg.
